# Source: ChEMBL document CHEMBL1126199, “(R)-(-)- and (S)-(+)-adenallene: synthesis, absolute configuration, enantioselectivity of antiretroviral effect, and enzymic deamination” (J Med Chem, 1992)
# Test system: Human immunodeficiency virus 1
# Assay: Compound was tested for inhibition of HIV-1
# Assay type: functional, organism-based
row,IC50 [µM],SMILES
1,> 200,Nc1ncnc2c1ncn2C=C=CCO (stereo in doubt; 3)
2,14,Nc1ncnc2c1ncn2C=C=CCO (stereo in doubt; 1a)
3,5.8,Nc1ncnc2c1ncn2C=C=CCO (stereo in doubt; 2)
